Measurements taken from patent publication US10494338B2, “Prostaglandin derivative” (AGC INC., priority 2016, dated 2019).

Legend:
rat platelet aggregation = test: Inhibitory action on rat platelet aggregation in vitro (ADP-induced, platelet-rich plasma); assay type: cell-based; details: SD rat PRP, ADP 2 μmol/L; relative activity from IC50, activity of IC50 value of PGE1 = 100
Description: Experimental Example 2: Evaluation of Inhibitory Action on Rat Platelet Aggregation In Vitro (1) Preparation of Rat Platelet-Rich Plasma In the same manner as in the above-mentioned Experimental Example 1(1), blood samples were collected from the abdominal artery of 8- to 9-week-old male SD rats. PRP was diluted with PPP and the number of platelet was adjusted to 63.2×10^4/μL. (2) Measurement of Platelet Aggregation Ability In the same manner as in the above-mentioned Experimental Example 1(2) except that the final concentration of ADP was 2 μmol/L, the compound of the present invention, prostaglandin E1 (PGE1:positive control substance) or vehicle control was added as a test substance, and the maximum response of aggregation was measured. (3) Evaluation of Platelet Aggregation Inhibitory Action In the same manner as in the above-mentioned Experimental Example 1(3), IC50 values were determined from the aggregation inhibition ratio of the test substance, and the relative activity (%) of each test substance was calculated by defining the activity of IC50 value of PGE1 as 100.

[1] = system: human platelet aggregation; test: Human platelet aggregation inhibitory action in vitro (ADP-induced, platelet-rich plasma); assay type: cell-based; details: human PRP, ADP 3 μmol/L; relative activity from IC50, activity of IC50 value of limaprost = 100
Description: Experimental Example 1: Evaluation of Human Platelet Aggregation Inhibitory Action In Vitro
(1) Preparation of Human Platelet-Rich Plasma
Using 3.8 w/v % sodium citrate as an anticoagulant, blood samples were collected from human brachial vein at a ratio of sodium citrate solution:blood (volume ratio)=1:9, and an upper layer of platelet-rich plasma (PRP) was collected by centrifugation (120×g, 10 min). Platelet poor plasma (PPP) was prepared from PRP-free blood by centrifugation (1700×g, 10 min). The number of platelets in PRP was measured and adjusted to 25×10^4/μL by diluting with PPP.
(2) Measurement of Platelet Aggregation Ability
The platelet aggregation ability was measured by a platelet aggregometer (PRP313 M, IMI Co., Ltd.) according to the method of Born (Nature, 1962, vol. 194, pp. 927-929). PRP (190 μL) was placed in a glass cuvette and mounted on the platelet aggregometer. Then, 5 μL of the compound of the present invention, limaprost (positive control substance) or vehicle control (0.25 vol % dimethyl sulfoxide [DMSO]) was added as a test substance, and the mixture was incubated at 37° C. for 10 min. ADP (LMS Co., Ltd.) (5 μL) as a platelet aggregation agent was added at 3 μmol/L in a final concentration to cause aggregation, and the maximum response of the aggregation was measured.
(3) Evaluation of Inhibitory Action on Platelet Aggregation
The aggregation inhibition ratio of a test substance was determined by defining the maximum aggregation ratio of control as 100%, and IC50 value was determined by using “Dx calculation (linear fitting): non-logit transformation” of SAS System Version 9.1.3 (Stat Preclinica Client Ver. 1.1 SAS Institute Japan, Ltd.). Furthermore, the relative activity (%) of each test substance was calculated by defining the activity of IC50 value of limaprost as 100.

[2] = system: rat cauda equine blood flow; test: Increasing effect on rat cauda equine blood flow (intravenous infusion, laser Doppler); assay type: in vivo; details: Wistar rat, tail vein infusion 10 min; relative activity from ED20 (dose increasing cauda equine blood flow by 20%), limaprost = 100
Description: Experimental Example 4: Evaluation of Increasing Effect on rat Cauda Equine Blood Flow
(1) Administration of Test Substance
The compound of the present invention or limaprost (positive control substance) as a test substance was injected at 0.263, 0.789 and 2.63 nmol/kg in principle to Slc:Wistar male rats (body weight: about 200-250 g) from the tail vein at a flow rate of 0.2 mL/min for 10 min with an infusion pump (model 11, Harvard Apparatus). A vehicle (1 vol % DMSO-physiological saline) was similarly injected to the control group (5-6 […] in each group).
(2) Measurement of Cauda Equine Blood Flow
The rats were fixed in a prone position under halothane anesthesia and kept warm by a heater (Nippon Medical & Chemical Instruments Co., Ltd.). The lower back of the rats was shaved, dissected to expose the spine, the vertebral arch of the fifth lumbar vertebra was excised and cauda equina was exposed. The cauda equine blood flow was measured by a laser Doppler blood flow meter (TBF-LN1, Unique Medical Co., Ltd.) via a non-contact type probe (LP-NC special type, Unique Medical Co., Ltd.) fixed perpendicularly to a position of the exposed cauda equina upper by about 1 mm from before administration of each test substance until 60 min after the administration. The open wound was filled with liquid paraffin to prevent drying of the exposed cauda equina.
The obtained data was taken into a personal computer via PowerLab8/30 (registered trade mark, ML870, ADInstruments) every 1/400 second, and analyzed using LabChart (registered trade mark, ADInstruments). The analysis time points were before administration (administration 0 min), and 3, 5, 8, 10, 13, 15, 18, 20, 30, 40, 50 and 60 min after administration, or before administration (administration 0 min), and 3, 5, 10, 15, 20, 30, 40, 50 and 60 min after administration. The mean value for 10 seconds at each time point was taken as the measurement value, and the change rate (%) relative to the value before administration was obtained by the following equation. The rate of change (%)=(measurement value at each time point after administration−measurement value before administration)/measurement value before administration×100
Furthermore, difference in the rate of change (%) relative to the control group at each time point [Δ change rate (%)] was calculated by the following equation, and the maximum value of the Δ change rate was taken as the maximum change rate. Δchange rate (%)=change rate of each individual at each time point−mean of change rate of control group
From the maximum change rate at each dose of the test substance, the dose at which the cauda equine blood flow increases by 20% (ED20 value) was determined by linear regression equation, and the relative activity (%) of each test substance was calculated based on the activity of ED20 value of limaprost as 100.

[3] = system: guinea pig platelet aggregation; test: Persistent inhibitory action on guinea pig platelet aggregation ex vivo after single oral dose; assay type: in vivo; details: for AUC: 1-inhibition 0 hr / AUC: 6-inhibition 0 hr: AUC of maximum aggregation inhibition ratio (%) vs time (hr), oral IC50 dose; for AUC: 1-inhibition 0 hr: from 1 hr after administration to inhibition 0 hr; for AUC: 6-inhibition 0 hr: from 6 hr after administration to inhibition 0 hr; for Inhibition 0 hr: assumed time at which maximum aggregation inhibition ratio became 0%, single oral dose at IC50 dose; for Inhibition 0 hr / single oral dose showing the IC50 value: guinea pig; for single oral dose showing the IC50 value: blood collected 4 hr later, ADP 0.5 μmol/L; for AUC: 1-inhibition 0 hr (% relative to limaprost) / AUC: 6-inhibition 0 hr (% relative to limaprost): value in brackets, limaprost = 100
Description: Experimental Example 3: Evaluation of Persistent Inhibitory Action on Guinea Pig Platelet Aggregation Ex Vivo
(1) Measurement of IC50 Value
As a test substance, a single oral dose of the compound of the present invention (3 doses of 79, 132 and 263 nmol/kg), limaprost (positive control substance: 3 doses of 79, 263 and 789 nmol/kg) or vehicle control (water for injection containing 0.26 vol % DMSO) was administered at 10 mL/kg to 4- to 10-week-old male Hartley guinea pigs. Blood samples were collected from the abdominal artery 4 hr later, platelet aggregation ability was measured, and the IC50 value was calculated from the aggregation inhibitory activity (aggregation was induced by 0.5 μmol/L ADP) in the same manner as in the above-mentioned Experimental Example 1(3).
(2) Administration of Test Substance and Preparation of Platelet-Rich Plasma
Blood samples were collected from the abdominal artery of the guinea pig at 1, 2, 4, 6, 10, 16 and 24 hr later. PRP was diluted with PPP and the number of platelet was adjusted to about 60×10^4/μL in the same manner as in the above-mentioned Experimental Example 1(1) (n=3−4).
(3) Measurement of Platelet Aggregation
In the same manner as in the above-mentioned Experimental Example 1(2), the platelet aggregation ability was measured according to the method of Born. PRP (190 μL) was placed in a glass cuvette, mounted on the platelet aggregometer and incubated at 37° C. for 10 min. ADP (10 μL) as platelet aggregation agent was added at 0.5 μmol/L in a final concentration to cause aggregation, and the maximum reaction of the aggregation was measured.
(4) Evaluation of Persistent Inhibitory Action on Platelet Aggregation
The maximum aggregation inhibition ratio of the test substance based on the maximum aggregation inhibition ratio of the control group as 0% was determined from the maximum coagulation ratio of the control group and the maximum coagulation ratio of the test substance when IC50 values were calculated. […] In addition, the assumed time at which the maximum aggregation inhibition ratio became 0% on the graph was determined as the time at which inhibition of aggregation disappeared (inhibition 0 hr).

With `CCC#CC[C@H](C)C(O)/C=C/[C@H]1[C@H](O)CC(=O)[C@@H]1CCSCCCC(=O)OC` (mixture of isomers) [compound (1)-1, methyl 4-((2-((1R,2R,3R)-3-hydroxy-2-((1E,3RS,4S)-3-hydroxy-4-methylnon-1-en-6-yn-1-yl)-5-oxocyclopentyl)ethyl)thio)butanoate] the “Relative activity (%)” value (rat platelet aggregation) was 169%.
For `CCC#CC[C@H](C)C(O)/C=C/[C@H]1[C@H](O)CC(=O)[C@@H]1CCSC/C=C/C(=O)OC` (mixture of isomers) [compound (1)-2, methyl (2E)-4-((2-((1R,2R,3R)-3-hydroxy-2-((1E,3RS,4S)-3-hydroxy-4-methylnon-1-en-6-yn-1-yl)-5-oxocyclopentyl)ethyl)thio)but-2-enoate], the “Relative activity (%)” value (rat platelet aggregation) was 62%.
With `CCC#CC[C@H](C)[C@H](O)/C=C/[C@H]1[C@H](O)CC(=O)[C@@H]1CCCCCCC(=O)OCc1oc(=O)oc1C` [compound (1)-4, (5-methyl-2-oxo-1,3-dioxol-4-yl)methyl 7-((1R,2R,3R)-3-hydroxy-2-((1E,3S,4S)-3-hydroxy-4-methylnon-1-en-6-yn-1-yl)-5-oxocyclopentyl)heptanoate] the “Relative activity (%)” value [1] was 643% and the “Relative activity (%)” value [2] was 147%.
`CCC#CC[C@H](C)[C@H](O)/C=C/[C@H]1[C@H](O)CC(=O)[C@@H]1CCCCCCC(=O)OCC(=O)C(C)(C)C` [compound (1)-5, 3,3-dimethyl-2-oxobutyl 7-((1R,2R,3R)-3-hydroxy-2-((1E,3S,4S)-3-hydroxy-4-methylnon-1-en-6-yn-1-yl)-5-oxocyclopentyl) heptanoate] was tested, and the “Relative activity (%)” value [1] was 161%.
For `CCC#CC[C@H](C)[C@H](O)/C=C/[C@H]1[C@H](O)CC(=O)[C@@H]1CCCCCCC(=O)O` [compound (1)-6, 7-((1R,2R,3R)-3-hydroxy-2-((1E,3S,4S)-3-hydroxy-4-methylnon-1-en-6-yn-1-yl)-5-oxocyclopentyl)heptanoic acid], the “Relative activity (%)” value [1] was 923% and the “Relative activity (%)” value [2] was 383%.
With `CCC#CC[C@H](C)[C@H](O)/C=C/[C@H]1[C@H](O)CC(=O)[C@@H]1CCCC/C=C/C(=O)O` [compound (1)-7, (2E)-7-((1R,2R,3R)-3-hydroxy-2-((1E,3S,4S)-3-hydroxy-4-methylnon-1-en-6-yn-1-yl)-5-oxocyclopentyl)hept-2-enoic acid] the “Relative activity (%)” value [1] was 1319%, the AUC: 1-inhibition 0 hr [3] was 713 %·h and the AUC: 6-inhibition 0 hr [3] was 526 %·h. The “Inhibition 0 hr” value [3] was >24 h, the “single oral dose showing the IC50 value” [3] was 168 nmol/kg and the “AUC: 1-inhibition 0 hr (% relative to limaprost)” value [3] was 202%. For the same compound, the “AUC: 6-inhibition 0 hr (% relative to limaprost)” value [3] was 359% and the “Relative activity (%)” value [2] was 375%.
`C[C@@H](CC#CC1CC1)[C@H](O)/C=C/[C@H]1[C@H](O)CC(=O)[C@@H]1CCCCCCC(=O)O` [compound (1)-9, 7-((1R,2R,3R)-2-((1E,3S,4S)-7-cyclopropyl-3-hydroxy-4-methylhept-1-en-6-yn-1-yl)-3-hydroxy-5-oxocyclopentyl)heptanoic acid] was tested, and the “Relative activity (%)” value [1] was 1200%, the AUC: 1-inhibition 0 hr [3] was 627 %·h and the AUC: 6-inhibition 0 hr [3] was 401 %·h. The “Inhibition 0 hr” value [3] was 19.7 h, the “single oral dose showing the IC50 value” [3] was 178 nmol/kg and the “AUC: 1-inhibition 0 hr (% relative to limaprost)” value [3] was 178%. For the same compound, the “AUC: 6-inhibition 0 hr (% relative to limaprost)” value [3] was 273% and the “Relative activity (%)” value [2] was 311%.
For `C[C@@H](CC#CC1CC1)[C@H](O)/C=C/[C@H]1[C@H](O)CC(=O)[C@@H]1CCCC/C=C/C(=O)O` [compound (1)-10, (2E)-7-((1R,2R,3R)-2-((1E,3S,4S)-7-cyclopropyl-3-hydroxy-4-methylhept-1-en-6-yn-1-yl)-3-hydroxy-5-oxocyclopentyl)hept-2-enoic acid], the “Relative activity (%)” value [1] was 1481%, the AUC: 1-inhibition 0 hr [3] was 719 %·h and the AUC: 6-inhibition 0 hr [3] was 508 %·h. For the same compound, the “Inhibition 0 hr” value [3] was >24 h, the “single oral dose showing the IC50 value” [3] was 187 nmol/kg and the “AUC: 1-inhibition 0 hr (% relative to limaprost)” value [3] was 204%. For the same compound, the “AUC: 6-inhibition 0 hr (% relative to limaprost)” value [3] was 346% and the “Relative activity (%)” value [2] was 550%.
In the case of `CCCC[C@H](C)C[C@H](O)/C=C/[C@H]1[C@H](O)CC(=O)[C@@H]1CCCC/C=C/C(=O)O` [limaprost, (2E)-7-((1R,2R,3R)-3-hydroxy-2-((1E,3S,5S)-3-hydroxy-5-methylnon-1-en-1-yl)-5-oxocyclopentyl)hept-2-enoic acid, reference compound], the “Relative activity (%)” value [1] is reported as 100%, the AUC: 1-inhibition 0 hr [3] is reported as 353 %·h and the AUC: 6-inhibition 0 hr [3] is reported as 147 %·h. For the same compound, the “Inhibition 0 hr” value [3] was 12.1 h, the “single oral dose showing the IC50 value” [3] was 266 nmol/kg and the “AUC: 1-inhibition 0 hr (% relative to limaprost)” value [3] was 100%. For the same compound, the “AUC: 6-inhibition 0 hr (% relative to limaprost)” value [3] was 100% and the “Relative activity (%)” value [2] was 100%.
